Entries after “also recorded” stand apart in the source; their conditions may differ. Structures can show the parent of a compound that is named as a salt. Where two headings read alike, the source gives them in different places.
Key:
advanced HCC [1] = experiment: Phase 1b tumour response per RECIST v1.1; format: in vivo, human; conditions: for duration of partial response: one patient
Experimental: (§1) In Phase 2, the primary endpoint was independent review committee (IRC)-assessed time to progression (TTP) per Response Evaluation Criteria in Solid Tumors (RECIST) v1.1. Secondary endpoints included investigator-assessed TTP, IRC- and investigator-assessed progression-free survival (PFS), objective response rate (ORR), disease control rate, OS and safety. In both phases, tumour assessments were performed according to RECIST v1.1 based on scans taken at the end of every second cycle until Cycle 13, and every four cycles thereafter.

[2] = Phase 1b pharmacokinetics, Cycle 1 Day 15; format: in vivo, human; conditions: for AUC / Cmax: human, in vivo, oral, Cycle 1 Day 15, geometric mean
Experimental: Secondary endpoints in Phase 1b included efficacy measures and pharmacokinetic parameters, such as Cmax and area under the concentration–time curve over the dosing interval at steady state (AUCτ,ss), which were evaluated at Cycle 1, Day 15.

[3] = patients with moderate hepatic impairment (Child–Pugh B); cited from earlier work
[4] = system: Asian patients with advanced HCC; experiment: Phase 1b dose escalation: DLTs and adverse events
Experimental: This was an open-label, multicentre, integrated, Phase 1b/2 trial conducted in Asian patients with advanced HCC (NCT01988493). […] Phase 1b was conducted at eight sites and Phase 2 at 43 sites in mainland China, South Korea and Taiwan.
Once three patients had completed one cycle at 500 mg, nine further patients were to be enrolled at this dose level to confirm the RP2D. […] The Safety Monitoring Committee (SMC) could also recommend enrolment of additional patients at or above the RP2D.
In Phase 1b, the primary endpoint was the incidence of investigator-assessed DLTs occurring in Cycle 1, as well as the incidence of other AEs (graded according to the National Cancer Institute Common Terminology and Criteria for Adverse Events, v4.0). […] Secondary endpoints in Phase 1b included efficacy measures and pharmacokinetic parameters, such as Cmax and area under the concentration–time curve over the dosing interval at steady state (AUCτ,ss), which were evaluated at Cycle 1, Day 15.

MET = system: MET; design: method as in PMID 28862760; conditions: cited from earlier work
[5] = system: advanced HCC with MET overexpression; experiment: Phase 2 randomised efficacy, tepotinib vs sorafenib (TTP, PFS, OS, response; RECIST v1.1); format: in vivo, human; conditions: Phase 2, mITT
Description: (§2) Patients in both phases continued to receive allocated therapy until disease progression, intolerable toxicity or withdrawal of consent.
as §1
(§3) In Phase 2, analyses were conducted according to randomised treatment assignment. […] In total, 100 TTP events were required to ensure 80% power (with a two-sided significance level of 10%) for rejecting the null hypothesis of equal treatment effect between treatment arms, assuming a true hazard ratio (HR) of 0.6. […] For the primary and secondary time-to-event endpoints, treatment groups were compared in the mITT population, applying a two-sided log-rank test, stratified by BCLC stage (α = 10%).

[6] = system: SACT-naive Asian patients with aHCC with MET overexpression; experiment: Phase 2 safety (adverse events, NCI-CTCAE v4.0); conditions: for treatment-related AEs: ALT increased / treatment-related AEs: AST increased / treatment-related AEs: Alopecia / treatment-related AEs: Blood bilirubin increased / treatment-related AEs: Blood creatinine increased / treatment-related AEs: Diarrhoea / treatment-related AEs: Fatigue / treatment-related AEs: Hypertension / treatment-related AEs: Hypoalbuminaemia / treatment-related AEs: Oedema peripheral / treatment-related AEs: Overall / treatment-related AEs: PPES: Phase 2, safety analysis set
Experimental: as §2
DLTs are defined in Supplementary Table 3.
as §3

advanced HCC [7] = conditions: Phase 3 SHARP sorafenib trial; cited from earlier work
advanced HCC [8] = conditions: Phase 3 Asia-Pacific sorafenib trial; cited from earlier work
HCC with MET alterations = system: HCC with MET alterations; design: method as in PMID 31853265; conditions: 30 patients with HCC with MET alterations, first-line; cited from earlier work
[9] = Phase 1b, 500 mg dose, comparator ref 13
[10] = Phase 1b, across all dose cohorts

CN1CCC(COc2cnc(-c3cccc(Cn4nc(-c5cccc(C#N)c5)ccc4=O)c3)nc2)CC1 [Tepotinib, tepotinib hydrochloride hydrate]
best overall response of progressive disease (advanced HCC [1]; Phase 1b, 300 mg cohort): 85.7% | best overall response of stable disease (advanced HCC [1]; Phase 1b, 300 mg cohort): 14.3% | disease control rate (advanced HCC [1]; Phase 1b, 300 mg cohort): 14.3% | best overall response of progressive disease (advanced HCC [1]; Phase 1b, 500 mg cohort): 35.7% | best overall response of stable disease (advanced HCC [1]; Phase 1b, 500 mg cohort): 42.9% | objective response rate (ORR) (advanced HCC [1]; Phase 1b, 500 mg cohort): 7.1% | duration of partial response (advanced HCC [1]; Phase 1b, 500 mg cohort): 19 months | best overall response of progressive disease (advanced HCC [1]; Phase 1b, 1,000 mg cohort): 50.0% | best overall response of stable disease (advanced HCC [1]; Phase 1b, 1,000 mg cohort): 33.3% | objective response rate (ORR) (advanced HCC [1]; Phase 1b, 1,000 mg cohort): 16.7% | duration of partial response (advanced HCC [1]; Phase 1b, 1,000 mg cohort): 4.4 months | AUCτ as percentage of that observed in the first-in-human trial [2, 9]: 61% | Cmax as percentage of that observed in the first-in-human trial [2, 9]: 63% | AUC ([2]; 1000 mg, Phase 1b, 1,000 mg QD): 28600 ng·h/mL | Cmax ([2]; 1000 mg, Phase 1b, 1,000 mg QD): 1370 ng/mL | AUC ([2]; Phase 1b, 300 mg QD): 11800 ng·h/mL | Cmax ([2]; Phase 1b, 300 mg QD): 585 ng/mL | AUC ([2]; Phase 1b, 500 mg QD): 16700 ng·h/mL | Cmax ([2]; Phase 1b, 500 mg QD): 815 ng/mL | lower AUC from time 0 to infinity versus control subjects without hepatic impairment [3]: 12% | lower Cmax versus control subjects without hepatic impairment [3]: 29% | dose-limiting toxicities (DLTs) ([4]; Phase 1b, 300, 500 or 1,000 mg QD, Cycle 1): no DLTs occurred; also recorded: No DLTs were observed; also recorded: no DLTs were reported | treatment-related AEs, Grade ≥3 [4, 10]: 33.3% | treatment-related AEs, any grade [4, 10]: 81.5% | patients with AEs of any cause ([4]; Phase 1b, n = 27): All patients

O=C1NC(=O)[C@@H](c2cn3c4c(cccc24)CCC3)[C@@H]1c1c[nH]c2ccccc12 [tivantinib]
affinity for the MET receptor (MET; relative to tepotinib, cabozantinib and capmatinib): lower affinity for the receptor

CNC(=O)c1cc(Oc2ccc(NC(=O)Nc3ccc(Cl)c(C(F)(F)F)c3)cc2)ccn1 [Sorafenib, sorafenib]
ORR by IRC [5]: 0% | median OS [5]: 8.6 months | median PFS assessed by IRC [5]: 1.4 months | median investigator-assessed PFS [5]: 2.8 months | median investigator-assessed TTP [5]: 2.8 months | Best overall response: Complete response ([5]; IRC): 0 (0.0) | Best overall response: Non-complete response/non-partial response ([5]; IRC): 0 (0.0) | Best overall response: Partial response ([5]; IRC): 0 (0.0) | Best overall response: Progressive disease ([5]; IRC): 25 (67.6) | Best overall response: Stable disease ([5]; IRC): 8 (21.6) | Objective response rate ([5]; IRC): 0 (0.0) n (%) | disease control ([5]; IRC): 21.6% | disease control rate ([5]; IRC): 8 (21.6) n (%) | median IRC-assessed time to progression (TTP) ([5]; tepotinib 500 mg QD, sorafenib 400 mg twice daily): 1.4 months | aspartate transaminase increase, any cause ([6]; Phase 2): 36.4% | deaths deemed treatment-related ([6]; Phase 2): neither were deemed treatment-related | decreased appetite, any cause ([6]; Phase 2): 40.9% | diarrhoea, any cause ([6]; Phase 2): 38.6% | palmar–plantar erythrodysesthesia, any cause ([6]; Phase 2): 61.4% | patients who died due to AEs while on treatment ([6]; Phase 2): Two | patients with AEs of any cause ([6]; Phase 2): 97.7% | patients with Grade ≥3 AEs of any cause ([6]; Phase 2): 70.5% | permanent treatment discontinuation due to AEs of any cause ([6]; Phase 2): 13.6% | treatment-related diarrhoea ([6]; Phase 2, any grade): 31.8% | treatment-related palmar–plantar erythrodysesthesia ([6]; Phase 2, any grade): 61.4% | treatment-related AEs: ALT increased ([6]; Any grade): 7 (15.9) n (%) | treatment-related AEs: AST increased ([6]; Any grade): 10 (22.7) n (%) | treatment-related AEs: Alopecia ([6]; Any grade): 10 (22.7) n (%) | treatment-related AEs: Blood bilirubin increased ([6]; Any grade): 8 (18.2) n (%) | treatment-related AEs: Blood creatinine increased ([6]; Any grade): 0 (0.0) n (%) | treatment-related AEs: Diarrhoea ([6]; Any grade): 14 (31.8) n (%) | treatment-related AEs: Fatigue ([6]; Any grade): 11 (25.0) n (%) | treatment-related AEs: Hypertension ([6]; Any grade): 11 (25.0) n (%) | treatment-related AEs: Hypoalbuminaemia ([6]; Any grade): 2 (4.5) n (%) | treatment-related AEs: Oedema peripheral ([6]; Any grade): 0 (0.0) n (%) | treatment-related AEs: Overall ([6]; Any grade): 43 (97.7) n (%) | treatment-related AEs: PPES ([6]; Any grade): 27 (61.4) n (%) | treatment-related AEs: ALT increased ([6]; Grade ≥ 3): 0 (0.0) n (%) | treatment-related AEs: AST increased ([6]; Grade ≥ 3): 3 (6.8) n (%) | treatment-related AEs: Alopecia ([6]; Grade ≥ 3): 0 (0.0) n (%) | treatment-related AEs: Blood bilirubin increased ([6]; Grade ≥ 3): 2 (4.5) n (%) | treatment-related AEs: Blood creatinine increased ([6]; Grade ≥ 3): 0 (0.0) n (%) | treatment-related AEs: Diarrhoea ([6]; Grade ≥ 3): 3 (6.8) n (%) | treatment-related AEs: Fatigue ([6]; Grade ≥ 3): 0 (0.0) n (%) | treatment-related AEs: Hypertension ([6]; Grade ≥ 3): 6 (13.6) n (%) | treatment-related AEs: Hypoalbuminaemia ([6]; Grade ≥ 3): 0 (0.0) n (%) | treatment-related AEs: Oedema peripheral ([6]; Grade ≥ 3): 0 (0.0) n (%) | treatment-related AEs: Overall ([6]; Grade ≥ 3): 20 (45.5) n (%) | treatment-related AEs: PPES ([6]; Grade ≥ 3): 3 (6.8) n (%) | treatment-related AEs, Grade ≥3, overall ([6]; Phase 2, text): 45.5% | treatment-related AEs, any grade, overall ([6]; Phase 2, text): 97.7% | median TTP (advanced HCC [7]): 5.5 months | median TTP (advanced HCC [8]): 2.8 months

CNC(=O)c1ccc(-c2cnc3ncc(Cc4ccc5ncccc5c4)n3n2)cc1F [capmatinib]
ORR (HCC with MET alterations): 10%

COc1cc2nccc(Oc3ccc(NC(=O)C4(C(=O)Nc5ccc(F)cc5)CC4)cc3)c2cc1OC [cabozantinib]
in vitro IC50 for MET inhibition (MET): low nanomolar range

Source: paper PMC8292411 (British Journal of Cancer, 2021)
